{"source": "patent US8741911B2", "about": "“Raf inhibitor compounds” (Eli Lilly and Company, priority 2012, dated 2014)", "key": {"[1]": {"system": "NCI-H1155", "assay": "CellTiter-Glo proliferation and viability assay", "type": "cell-based", "details": "Homo sapiens"}, "[2]": {"system": "MKN45", "assay": "CellTiter-Glo proliferation and viability assay", "type": "cell-based", "details": "Homo sapiens"}, "[3]": {"system": "NCI-H1573", "assay": "CellTiter-Glo proliferation and viability assay", "type": "cell-based", "details": "Homo sapiens"}, "[4]": {"system": "NCI-H23", "assay": "CellTiter-Glo proliferation and viability assay", "type": "cell-based", "details": "Homo sapiens"}, "[5]": {"system": "HL-60", "assay": "CellTiter-Glo proliferation and viability assay", "type": "cell-based", "details": "Homo sapiens"}, "[6]": {"system": "RKO", "assay": "CellTiter-Glo proliferation and viability assay", "type": "cell-based", "details": "Homo sapiens"}, "[7]": {"system": "AGS", "assay": "CellTiter-Glo proliferation and viability assay", "type": "cell-based", "details": "Homo sapiens"}, "[8]": {"system": "SNU-449", "assay": "CellTiter-Glo proliferation and viability assay", "type": "cell-based", "details": "Homo sapiens"}, "[9]": {"system": "phospho-MEK and phospho-ERK in A375 cells", "assay": "Immunoblotting (Western Blot) analysis of phospho-MEK and phospho-ERK", "type": "cell-based, human", "experimental": "Testing is carried out at doses of 0, and 11 serial dilutions ranging from 0.17 to 10000 nM. Protein lysates are generated by treatment of the cells with RIPA lysis buffer from Millipore. Western blotting analysis is performed substantially as described in Yadav et al, Molecular Carcinogenesis, 2011, 50: 346-52. Briefly, SDS-PAGE is performed on cell lysates containing 20 ug of total protein using 4-20% Novex® tri-glycine gradient gels (Invitrogen). Protein is transferred onto […] nitrocellulose membranes using NuPAGE® Transfer Buffer (Invitrogen) and 10% methanol at 100 V, 4° C. for 1 hr. Generally, the primary antibody is used at 1:1000 dilution, and secondary antibody at 1:20000 dilution. Proteins are detected using the Odyssey Infrared Imaging System (Li-COR Biosciences). Antibodies against ERK1/2, phospho-ERK1/2, phospho-MEK1/2, and actin are obtained from Cell Signaling Technology.\nPhospho-ERK activity was substantially eliminated at 41 nM."}, "[10]": {"system": "HCT-116 K-Ras mutant B-Raf wild type xenograft", "assay": "HCT-116 xenograft tumor model, efficacy", "type": "in vivo, rat", "details": "nude rats, oral twice a day 30 mg/kg for 21 days", "experimental": "Briefly, 10×10^6 cells (A375) or 5×10^6 cells (HCT-116) in a 1:1 medium and matrigel mix (0.2 mL total volume) are implanted by subcutaneous injection in the hind leg of nude female rats (NIH model No. NIHRNU-M from Taconic). A total of 8 rats in each group are used for the efficacy study, and a total of 3-4 rats in each group are used for a pharmacodynamic study. The Eli Lilly and Company Animal Care and Use Committee approved all the experimental protocols. […] Tumor growth and body weight are monitored over time to evaluate activity and signs of toxicity. Bidimensional measurements of tumors are performed twice a week and tumor volumes are calculated based on mid-axis length and mid-axis width. Tumor volume data are transformed to a log scale to equalize variance across time and treatment groups. The log volume data are analyzed with a two-way repeated measures analysis of variance by time and treatment using the MIXED® procedures in SAS® software (version 8.2). The correlation model for the repeated measures is spatial power. Treated groups are compared to the control group at each time point. The MIXED® procedure is also used separately for each treatment group to calculate adjusted means and standard errors at each time point. […]"}, "[11]": {"system": "NCI-H1993", "assay": "CellTiter-Glo proliferation and viability assay", "type": "cell-based", "details": "Homo sapiens"}, "[12]": {"system": "HepG2", "assay": "CellTiter-Glo proliferation and viability assay", "type": "cell-based", "details": "Homo sapiens"}, "[13]": {"system": "SK-Mel-5", "assay": "CellTiter-Glo proliferation and viability assay", "type": "cell-based", "details": "Homo sapiens"}, "[14]": {"system": "C3A", "assay": "CellTiter-Glo proliferation and viability assay", "type": "cell-based", "details": "Homo sapiens"}, "[15]": {"system": "786-0", "assay": "CellTiter-Glo proliferation and viability assay", "type": "cell-based", "details": "Homo sapiens"}, "[16]": {"system": "NUGC-3", "assay": "CellTiter-Glo proliferation and viability assay", "type": "cell-based", "details": "Homo sapiens"}, "[17]": {"system": "TALL-1", "assay": "CellTiter-Glo proliferation and viability assay", "type": "cell-based", "details": "Homo sapiens, read-out: Abs IC50"}, "[18]": {"system": "BxPC-3", "assay": "CellTiter-Glo proliferation and viability assay", "type": "cell-based", "details": "Homo sapiens"}, "[19]": {"system": "SK-MeI-2 cells harboring N-Ras mutation Q61R, and B-Raf wild type", "assay": "CellTiter-Glo proliferation and viability assay", "type": "cell-based", "details": "Homo sapiens; SK-MeI-2, CellTiter-Glo; read-out: cell proliferation and viability IC50"}, "[20]": {"system": "hematologic cancer cell lines with N-Ras mutations B-Raf wild type", "assay": "CellTiter-Glo proliferation and viability assay, N-Ras mutant hematologic panel", "type": "cell-based", "details": "Homo sapiens; 7 of the 9 hematologic cancer cell lines with N-Ras mutations B-Raf wild type", "experimental": "Additional N-RAS mutant B-Raf wild type hematologic cancer cell lines were tested for sensitivity to Example 1. N-Ras activating mutations are common in hematologic cancers occurring at a frequency of 10-30%. Two B-Raf V600E mutant melanoma cell lines (A-375 and SK-Mel-28), nine N-Ras mutant hematologic cell lines (HL-60, THP-1, TALL-1, C8166, H9, IM-9, GA-10 clone 4, P31-FUJ, MOLT-4) and seven N-Ras wild-type cell lines (LOUCY, HEL, U266, EB2, P30-OHK, NOMO-1, CCRF-CEM) were tested, and the IC50 data reported."}, "[21]": {"system": "LN 18", "assay": "CellTiter-Glo proliferation and viability assay", "type": "cell-based", "details": "Homo sapiens"}, "[22]": {"system": "THP-1", "assay": "CellTiter-Glo proliferation and viability assay", "type": "cell-based", "details": "Homo sapiens"}, "[23]": {"system": "A549", "assay": "CellTiter-Glo proliferation and viability assay", "type": "cell-based", "details": "Homo sapiens"}, "[24]": {"system": "NCI-H522", "assay": "CellTiter-Glo proliferation and viability assay", "type": "cell-based", "details": "Homo sapiens"}, "[25]": {"system": "NCI-H2081", "assay": "CellTiter-Glo proliferation and viability assay", "type": "cell-based", "details": "Homo sapiens"}}, "note": "pIC50: −log10 of the molar value. Like-named read-outs stand apart in the source and are kept apart here."}
{"compound": "CNc1ncc2cc(-c3cc(NC(=O)NCCC(C)(C)C)c(F)cc3C)c(C)nc2n1", "note": "[Example 1, 1-(3,3-Dimethylbutyl)-3-(2-fluoro-4-methyl-5-(7-methyl-2-(methylamino)pyrido[2,3-d]pyrimidin-6-yl)phenyl)urea]", "values": [{"measurement": "pIC50", "setting": "[1]; read-out: Abs IC50", "result": "< 7.70"}, {"measurement": "pIC50", "setting": "[1]; read-out: Rel IC50", "result": 9.33}, {"measurement": "pIC50", "setting": "[2]; MKN-45, read-out: Abs IC50", "result": 8.24}, {"measurement": "pIC50", "setting": "[2]; MKN-45, read-out: Rel IC50", "result": 9.06}, {"measurement": "pIC50", "setting": "[3]; read-out: Abs IC50", "result": "< 7.70"}, {"measurement": "pIC50", "setting": "[3]; read-out: Rel IC50", "result": 9.00}, {"measurement": "pIC50", "setting": "[4]; read-out: Abs IC50", "result": 8.20}, {"measurement": "pIC50", "setting": "[4]; read-out: Rel IC50", "result": 9.16}, {"measurement": "pIC50", "setting": "[5]; read-out: Abs IC50", "result": 9.70}, {"measurement": "pIC50", "setting": "[5]; read-out: Rel IC50", "result": 9.85}, {"measurement": "pIC50", "setting": "[6]; read-out: Abs IC50", "result": 8.31}, {"measurement": "pIC50", "setting": "[6]; read-out: Rel IC50", "result": 9.59}, {"measurement": "pIC50", "setting": "[7]; read-out: Abs IC50", "result": 8.94}, {"measurement": "pIC50", "setting": "[7]; read-out: Rel IC50", "result": 9.47}, {"measurement": "pIC50", "setting": "[8]; read-out: Abs IC50", "result": 8.73}, {"measurement": "pIC50", "setting": "[8]; read-out: Rel IC50", "result": 8.70}, {"measurement": "concentration at which phospho-ERK activity was substantially eliminated", "setting": "[9]", "result": 41, "unit": "nM"}, {"measurement": "phospho-MEK and phospho-ERK activities", "setting": "[9]", "result": "inhibited phospho-MEK and phospho-ERK activities"}, {"measurement": "tumor growth", "setting": "[10]", "result": "statistically significant tumor growth inhibition"}, {"measurement": "pIC50", "setting": "[11]; read-out: Abs IC50", "result": 9.77}, {"measurement": "pIC50", "setting": "[11]; read-out: Rel IC50", "result": 10.05}, {"measurement": "pIC50", "setting": "[12]; read-out: Abs IC50", "result": 10.22}, {"measurement": "pIC50", "setting": "[12]; read-out: Rel IC50", "result": 10.52}, {"measurement": "pIC50", "setting": "[13]; read-out: Abs IC50", "result": 9.89}, {"measurement": "pIC50", "setting": "[13]; read-out: Rel IC50", "result": 10.22}, {"measurement": "pIC50", "setting": "[14]; read-out: Abs IC50", "result": "< 7.70"}, {"measurement": "pIC50", "setting": "[14]; read-out: Rel IC50", "result": 9.22}, {"measurement": "pIC50", "setting": "[15]; read-out: Abs IC50", "result": "< 7.70"}, {"measurement": "pIC50", "setting": "[15]; read-out: Rel IC50", "result": 8.34}, {"measurement": "pIC50", "setting": "[16]; read-out: Abs IC50", "result": 9.17}, {"measurement": "pIC50", "setting": "[16]; read-out: Rel IC50", "result": 9.68}, {"measurement": "pIC50", "setting": "[17]", "result": 9.12}, {"measurement": "pIC50", "setting": "[18]; read-out: Abs IC50", "result": 9.41}, {"measurement": "pIC50", "setting": "[18]; read-out: Rel IC50", "result": 9.64}, {"measurement": "pIC50", "setting": "[19]", "result": 6.73}, {"measurement": "pIC50", "setting": "[20]", "result": "> 6.00"}, {"measurement": "pIC50", "setting": "[21]; read-out: Abs IC50", "result": "< 7.70"}, {"measurement": "pIC50", "setting": "[21]; read-out: Rel IC50", "result": "< 7.70"}, {"measurement": "pIC50", "setting": "[22]; read-out: Abs IC50", "result": 10.10}, {"measurement": "pIC50", "setting": "[22]; read-out: Rel IC50", "result": 10.52}, {"measurement": "pIC50", "setting": "[23]; read-out: Abs IC50", "result": 8.35}, {"measurement": "pIC50", "setting": "[23]; read-out: Rel IC50", "result": 8.68}, {"measurement": "pIC50", "setting": "[24]; read-out: Abs IC50", "result": 8.35}, {"measurement": "pIC50", "setting": "[24]; read-out: Rel IC50", "result": 9.66}, {"measurement": "pIC50", "setting": "[25]; read-out: Abs IC50", "result": "< 7.70"}, {"measurement": "pIC50", "setting": "[25]; read-out: Rel IC50", "result": "< 7.70"}]}
